Molecular target: T1, α-synuclein (αS) (Homo sapiens, UniProt P37840)
T1 construct: gene SNCA
Assay: seeded aggregation kinetics (ThT fluorescence) at […] compound
Assay type: biochemical

In the case of `CN1C(C(=O)Nc2ccccn2)=C(O)c2sc(Cl)cc2S1(=O)=O` [lornoxicam], the “seeded aggregation kinetics (ThT fluorescence) at 25 and 50 μM compound” value was “The potency of lornoxicam was mild in comparison to hits found previously, but it was nonetheless observable”.
